Data on nine compounds can be found in patent US20250179047A1, “5-[7-(3,4-DIHYDRO-1H-ISOQUINOLINE-2-CARBONYL)-1,2,3,4 TETRAHYDROISOQUINOLIN-6-YL]-1H-PYRROLE-3-CARBOXAMIDE DERIVATIVES, PHARMACEUTICAL COMPOSITIONS CONTAINING THEM AND THEIR USES AS PRO-APOPTOTIC AGENTS” (LES LABORATOIRES SERVIER, priority 2022, published 2025).

The target of experiment [1] is BCL2 WT (Homo sapiens (Human), UniProt P10415). Briefly: TR-FRET competitive binding assay, BCL2 WT. To be noted: Ki determined from IC50, read-out: TR_FRET EKI_Bcl2 WT. The method, boiled down:
(§1)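 Ki derived from IC50 (11-point dilution, 520/495 nm emission ratio) for displacing a fluorescein-labelled PUMA peptide (2 or 20 nM). Target was 0.5 nM E. coli-expressed Halo-tagged BCL2 (1-207) or BCLXL (2-196), terbium-labelled on Halo. Incubation 2 h at 23°C in pH 7.5 Hepes with 150 mM NaCl and 5% DMSO.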

For experiment [2], the target named is BCL2 G101V (Homo sapiens, UniProt P10415, G101V). In words: TR-FRET competitive binding assay, BCL2 G101V. Particulars: BCL2 G101V; Ki determined from IC50; read-out: TR_FRET EKI_Bcl2 G101V. The procedure, abridged:
as §1

In experiment [3] the test system is BCL2 G101V. Briefly: TR-FRET competitive binding assay, BCL2 G101V. Also noted: species or system human. To be noted: ratio Ki BCL2 G101V / Ki BCL2 WT. The procedure, abridged: as §1
For orientation: Time-resolved FRET reads energy transfer from a long-lived donor to a nearby acceptor.

Experiment [4] deals with BCL2 D103Y (Homo sapiens, UniProt P10415, D103Y). Briefly: TR-FRET competitive binding assay, BCL2 D103Y. Particulars: Ki determined from IC50, read-out: TR_FRET EKI_Bcl2 D103Y. The procedure, abridged:
as §1

Experiment [5] deals with BCLXL WT (Homo sapiens (Human), UniProt Q07817). Briefly: TR-FRET competitive binding assay, BCLXL WT. Particulars: for Ki: BCLXL WT, Ki determined from IC50, read-out: TR_FRET EKI BclxL; for TR_FRET EKI BCLxL/WT selectivty ratio: ratio Ki BCLxL / Ki BCL2 WT. The method, boiled down:
as §1

In experiment [6] the test system is KMS-12-PE Bcl-2 WT. Briefly: In vitro cytotoxicity CellTiter-Glo 48 h, KMS-12-PE Bcl-2 WT. Format: cell-based. To be noted: Homo sapiens, KMS-12-PE, C50 = concentration needed to reach 50% of the cellular viability. The procedure, abridged: (§2)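 Bcl-2 WT- and G101V-expressing KMS-12-PE cells; 48 h treatment at 37 °C, 5% CO2; CellTiter-Glo ATP luminescence; C50 from 11-point curves.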
A general note: Cellular ATP, detected with luciferase, serves as a proxy for viable cell number.

Experiment [7] deals with KMS-12-PE Bcl-2 G101V. Briefly: In vitro cytotoxicity CellTiter-Glo 48 h, KMS-12-PE Bcl-2 G101V. Format: cell-based. Particulars: for Ratio (G101V/WT): C50 KMS-12-PE Bcl-2 G101V over C50 KMS-12-PE Bcl-2 WT; for IC50: Homo sapiens, KMS-12-PE, 48 h, CellTiter-Glo, C50 = concentration needed to reach 50% of the cellular viability. The procedure, abridged:
as §2

BCLXL WT, sequence (Q07817 other isoform, or with tags, fused parts or gaps): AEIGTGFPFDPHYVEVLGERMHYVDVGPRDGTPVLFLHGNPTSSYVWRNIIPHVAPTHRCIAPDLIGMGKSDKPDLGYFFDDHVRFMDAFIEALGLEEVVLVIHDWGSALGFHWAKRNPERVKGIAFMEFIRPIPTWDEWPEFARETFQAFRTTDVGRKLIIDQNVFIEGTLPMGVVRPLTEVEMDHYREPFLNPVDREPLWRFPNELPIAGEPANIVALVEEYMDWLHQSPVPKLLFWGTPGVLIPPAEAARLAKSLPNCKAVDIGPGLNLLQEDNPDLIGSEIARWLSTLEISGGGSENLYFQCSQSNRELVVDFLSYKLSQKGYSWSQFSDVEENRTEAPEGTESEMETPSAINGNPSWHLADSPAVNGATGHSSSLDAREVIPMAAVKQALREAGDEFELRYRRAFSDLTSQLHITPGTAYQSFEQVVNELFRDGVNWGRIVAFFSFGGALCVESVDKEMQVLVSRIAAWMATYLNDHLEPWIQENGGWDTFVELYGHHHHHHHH

The IC50 is the midpoint of a concentration-inhibition curve. Read a high IC50 as lower potency. In the case of `Cc1c(C(=O)N(c2ccc(O)cc2)c2cc(C#N)n(C(F)F)c2C)cc(-c2cc3c(cc2C(=O)N2Cc4ccccc4C[C@H]2CN2CCCCC2)CN(C(=O)Cc2ccc(OCCN4C[C@@H](C)O[C@@H](C)C4)cc2)CC3)n1C` [Example 129, N-[5-cyano-1-(difluoromethyl)-2-methylpyrrol-3-yl]-5-{2-[2-(4-{2-[cis-2,6-dimethylmorpholin-4-yl]ethoxy}phenyl)acetyl]-7-{[(3S)-3-(piperidin-1-ylmethyl)-3,4-dihydro-1H-isoquinolin-2-yl]carbonyl}-3,4-dihydro-1H-isoquinolin-6-yl}-N-(4-hydroxyphenyl)-1,2-dimethylpyrrole-3-carboxamide], the Ki was determined as 0.15 nM in experiment [1], 0.8 nM in experiment [2], 0.24 nM in experiment [4] and 14.4 nM in experiment [5]. Further, the “TR_FRET EKI G101V/WT selectivty ratio” value in experiment [3] came to 5.5. Also, the “TR_FRET EKI BCLxL/WT selectivty ratio” value in experiment [5] was 96.0. In addition, the IC50 in experiment [6] turned out to be 0.014 µM; in experiment [7] it was 0.0632 µM. Further, the “Ratio (G101V/WT)” value in experiment [7] came to 4.5143.
Regarding `Cc1c(N(C(=O)c2cc(-c3cc4c(cc3C(=O)N3Cc5ccccc5C[C@H]3CN3CCC(F)(F)CC3)CN(C(=O)Cc3ccc(OCCN5CCOCC5)cc3F)CC4)n(C)c2C)c2ccc(O)cc2)cc(C#N)n1C` [Example 130, N-(5-cyano-1,2-dimethyl-1H-pyrrol-3-yl)-5-{7-[(3S)-3-[(4,4-difluoropiperidin-1-yl)methyl]-1,2,3,4-tetrahydroisoquinoline-2-carbonyl]-2-(2-{2-fluoro-4-[2-(morpholin-4-yl)ethoxy]phenyl}acetyl)-1,2,3,4-tetrahydroisoquinolin-6-yl}-N-(4-hydroxyphenyl)-1,2-dimethyl-1H-pyrrole-3-carboxamide], the Ki was determined as 0.4 nM in experiment [1], 2.3 nM in experiment [2], 1.33 nM in experiment [4] and 6.1 nM in experiment [5]. Besides, the “TR_FRET EKI G101V/WT selectivty ratio” value in experiment [3] amounted to 5.8. Besides, the “TR_FRET EKI BCLxL/WT selectivty ratio” value in experiment [5] is recorded as 15.3. Also, the IC50 in experiment [6] is 0.0055 µM; in experiment [7], 0.0258 µM. Besides, in experiment [7], the “Ratio (G101V/WT)” value is 4.69.
With `Cc1c(N(C(=O)c2cc(-c3cc4c(cc3C(=O)N3Cc5ccccc5C[C@H]3CN3CCCCC3)CN(C(=O)Cc3ccc(CCN5CCC(F)(F)CC5)cc3)CC4)n(C)c2C)c2ccc(O)cc2)cc(C#N)n1C` [Example 131, N-(5-cyano-1,2-dimethylpyrrol-3-yl)-5-[2-(2-{4-[2-(4,4-difluoropiperidin-1-yl)ethyl]phenyl}acetyl)-7-{[(3S)-3-(piperidin-1-ylmethyl)-3,4-dihydro-1H-isoquinolin-2-yl]carbonyl}-3,4-dihydro-1H-isoquinolin-6-yl]-N-(4-hydroxyphenyl)-1,2-dimethylpyrrole-3-carboxamide], the Ki in experiment [1] is 0.23 nM; in experiment [2] it was 1.5 nM; in experiment [4], 0.53 nM; in experiment [5], 8.7 nM. Also, the “TR_FRET EKI G101V/WT selectivty ratio” value in experiment [3] came to 6.5. Besides, the “TR_FRET EKI BCLxL/WT selectivty ratio” value in experiment [5] worked out at 37.8. The values for the IC50 in experiment [6] and in experiment [7] were 0.0361 µM and 0.244 µM, respectively. Besides, the “Ratio (G101V/WT)” value in experiment [7] came out at 6.759.
As for `Cc1c(N(C(=O)c2cc(-c3cc4c(cc3C(=O)N3Cc5ccccc5C[C@H]3CN3CCCCC3)CN(C(=O)Cc3ccc(OC(C)(C)CN5CCOCC5)cc3)CC4)n(C)c2C)c2ccc(O)cc2)cc(C#N)n1C` [Example 132, N-(5-cyano-1,2-dimethyl-1H-pyrrol-3-yl)-N-(4-hydroxyphenyl)-1,2-dimethyl-5-{2-[2-(4-{[2-methyl-1-(morpholin-4-yl)propan-2-yl]oxy}phenyl)acetyl]-7-[(3S)-3-[(piperidin-1-yl)methyl]-1,2,3,4-tetrahydroisoquinoline-2-carbonyl]-1,2,3,4-tetrahydroisoquinolin-6-yl}-1H-pyrrole-3-carboxamide], the Ki came out at 0.14 nM in experiment [1], 2.9 nM in experiment [2], 0.37 nM in experiment [4] and 12 nM in experiment [5]. Further, the “TR_FRET EKI G101V/WT selectivty ratio” value in experiment [3] amounted to 20.4. Moreover, in experiment [5], the “TR_FRET EKI BCLxL/WT selectivty ratio” value was 85.7. Besides, the IC50 in experiment [6] was determined as 0.066 µM; in experiment [7] it was 0.48 µM. Besides, the “Ratio (G101V/WT)” value in experiment [7] is reported as 7.2727.
In the case of `Cc1c(N(C(=O)c2cc(-c3cc4c(cc3C(=O)N3Cc5ccccc5C[C@H]3CN3CCCCC3)CN(C(=O)COc3ccccc3)CC4)n(C)c2C)c2ccc(O)cc2)cc(C#N)n1C` [Example 133, N-(5-cyano-1,2-dimethyl-1H-pyrrol-3-yl)-N-(4-hydroxyphenyl)-1,2-dimethyl-5-[2-(2-phenoxyacetyl)-7-[(3S)-3-[(piperidin-1-yl)methyl]-1,2,3,4-tetrahydroisoquinoline-2-carbonyl]-1,2,3,4-tetrahydroisoquinolin-6-yl]-1H-pyrrole-3-carboxamide], the Ki in experiment [1] was determined as 0.07 nM; in experiment [2] it was 0.6 nM; in experiment [4] it was 0.38 nM; in experiment [5] it was 1.9 nM. Besides, in experiment [3], the “TR_FRET EKI G101V/WT selectivty ratio” value amounted to 9.4. In addition, the “TR_FRET EKI BCLxL/WT selectivty ratio” value in experiment [5] stood at 29.2. Also, the figures for the IC50 in experiment [6] and in experiment [7] were 0.01 µM and 0.0556 µM, respectively. Moreover, the “Ratio (G101V/WT)” value in experiment [7] is listed as 5.59.
`CCN(CC)C[C@@H]1Cc2ccccc2CN1C(=O)c1cc2c(cc1-c1cc(C(=O)N(c3ccc(O)cc3)c3cc(C#N)n(C)c3C)c(C)n1C)CCN(C(=O)Cc1ccc(OCCN3CCOCC3)cc1F)C2` [Example 137, N-(5-cyano-1,2-dimethyl-1H-pyrrol-3-yl)-5-{7-[(3S)-3-[(diethylamino)methyl]-1,2,3,4-tetrahydroisoquinoline-2-carbonyl]-2-(2-{2-fluoro-4-[2-(morpholin-4-yl)ethoxy]phenyl}acetyl)-1,2,3,4-tetrahydroisoquinolin-6-yl}-N-(4-hydroxyphenyl)-1,2-dimethyl-1H-pyrrole-3-carboxamide]: the Ki in experiment [1] was 0.06 nM; in experiment [2], 0.3 nM; in experiment [4], 0.16 nM; in experiment [5], 1.4 nM. Also, in experiment [3], the “TR_FRET EKI G101V/WT selectivty ratio” value is 4.6. Besides, the “TR_FRET EKI BCLxL/WT selectivty ratio” value in experiment [5] is given as 23.7. Also, the IC50 in experiment [6] amounted to 0.0148 µM; in experiment [7] it was 0.0487 µM. Also, the “Ratio (G101V/WT)” value in experiment [7] turned out to be 3.2905.
Turning to `Cc1c(N(C(=O)c2cc(-c3cc4c(cc3C(=O)N3Cc5ccccc5C[C@H]3CN(C)C(C)C)CN(C(=O)Cc3ccc(OCCN(C)C5CC5)cc3)CC4)n(C)c2C)c2ccc(O)cc2)cc(C#N)n1C` [Example 138, N-(5-cyano-1,2-dimethyl-pyrrol-3-yl)-5-[2-[2-[4-[2-[cyclopropyl(methyl)amino]ethoxy]phenyl]acetyl]-7-[(3S)-3-[[isopropyl(methyl)amino]methyl]-3,4-dihydro-1H-isoquinoline-2-carbonyl]-3,4-dihydro-1H-isoquinolin-6-yl]-N-(4-hydroxyphenyl)-1,2-dimethyl-pyrrole-3-carboxamide], the Ki in experiment [1] was 0.08 nM; in experiment [2], 0.5 nM; in experiment [4], 0.24 nM; in experiment [5] it was 2.2 nM. Further, in experiment [3], the “TR_FRET EKI G101V/WT selectivty ratio” value is recorded as 6.2. In addition, in experiment [5], the “TR_FRET EKI BCLxL/WT selectivty ratio” value worked out at 27.2. The results for the IC50 in experiment [6] and in experiment [7] were 0.036 µM and 0.195 µM, respectively. In experiment [7], the “Ratio (G101V/WT)” value is 5.4167.
For `Cc1c(N(C(=O)c2cc(-c3cc4c(cc3C(=O)N3Cc5ccccc5C[C@H]3CN3CCC[C@H](C)C3)CN(C(=O)Cc3ccc(OCCN(C)C5CC5)cc3)CC4)n(C)c2C)c2ccc(O)cc2)cc(C#N)n1C` [Example 139, N-(5-cyano-1,2-dimethyl-pyrrol-3-yl)-5-[2-[2-[4-[2-[cyclopropyl(methyl)amino]ethoxy]phenyl]acetyl]-7-[(3S)-3-[[(3S)-3-methyl-1-piperidyl]methyl]-3,4-dihydro-1H-isoquinoline-2-carbonyl]-3,4-dihydro-1H-isoquinolin-6-yl]-N-(4-hydroxyphenyl)-1,2-dimethyl-pyrrole-3-carboxamide], the Ki in experiment [1] worked out at 0.12 nM; in experiment [2], 1 nM; in experiment [4], 0.51 nM; in experiment [5], 5.7 nM. Further, in experiment [3], the “TR_FRET EKI G101V/WT selectivty ratio” value was found to be 8.3. Also, in experiment [5], the “TR_FRET EKI BCLxL/WT selectivty ratio” value is listed as 47.5. For the same compound, the results for the IC50 in experiment [6] and in experiment [7] were 0.021 µM and 0.115 µM, respectively. In experiment [7], the “Ratio (G101V/WT)” value was 5.4762.
For `Cc1c(N(C(=O)c2cc(-c3cc4c(cc3C(=O)N3Cc5ccccc5C[C@H]3CN3CCC(C)CC3)CN(C(=O)Cc3ccc(OCCN5CCOCC5)cc3F)CC4)n(C)c2C)c2ccc(O)cc2)cc(C#N)n1C` [Example 140], the Ki in experiment [1] was determined as 0.08 nM; in experiment [2], 0.4 nM; in experiment [4], 0.17 nM; in experiment [5], 2.8 nM. The “TR_FRET EKI G101V/WT selectivty ratio” value in experiment [3] is 5.1. Moreover, the “TR_FRET EKI BCLxL/WT selectivty ratio” value in experiment [5] is 35.9. Further, the IC50 in experiment [6] worked out at 0.0055 µM; in experiment [7] it was 0.034 µM. In experiment [7], the “Ratio (G101V/WT)” value was found to be 6.2044.
